Results on two molecules are retold here after US10988459B2 (priority 2015, dated 2021).

The target in this test is human RIP1 kinase domain (2-375) (Homo sapiens (Human), UniProt Q13546). Kind of test: biochemical. In kind it is biochemical. Conditions: 50 uM ATP. The procedure, abridged:
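Ki^app comes from Morrison tight-binding fits of fractional activity versus compound concentration. Activity was read as ADP production, via tracer displacement lowering fluorescence polarization (633 nm laser). Conditions: 2 h, 50 nM insect-cell-expressed enzyme, 50 uM ATP, 30 mM MgCl2, 1 mM DTT, 0.5% DMSO, pH 7.5 Hepes.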

Like-named read-outs stand apart in the source and are kept apart here.

Chain of human RIP1 kinase domain (2-375) (Q13546 2-375): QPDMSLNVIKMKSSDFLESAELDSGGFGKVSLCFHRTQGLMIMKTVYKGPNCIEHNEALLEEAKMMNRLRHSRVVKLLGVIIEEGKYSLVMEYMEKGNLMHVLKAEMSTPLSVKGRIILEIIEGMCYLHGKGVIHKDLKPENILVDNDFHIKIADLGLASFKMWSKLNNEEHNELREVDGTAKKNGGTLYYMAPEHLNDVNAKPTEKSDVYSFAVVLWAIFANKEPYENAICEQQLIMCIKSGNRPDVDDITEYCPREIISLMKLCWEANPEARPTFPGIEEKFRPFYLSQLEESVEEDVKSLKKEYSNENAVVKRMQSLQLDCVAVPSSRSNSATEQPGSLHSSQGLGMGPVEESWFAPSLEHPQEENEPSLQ

Take `Cc1cc2n(n1)CC[C@H](NC(=O)c1ncn(Cc3ccccc3)n1)C(=O)N2C` [Example C, (S)-1-benzyl-N-(2,4-dimethyl-5-oxo-5,6,7,8-tetrahydro-4H-pyrazolo[1,5-a][1,3]diazepin-6-yl)-1H-1,2,4-triazole-3-carboxamide]: the Ki (scale-up batches (Examples A-C), apparent Ki (Morrison tight-binding fit), 50 nM RIP1 kinase domain, read-out: Ki) was 22 nM.
With “(S)—N-(5-methyl-4-oxo-2,3,4,5-tetrahydrobenzo[b][1,4]oxazepin-3-yl)-6-(trifluoromethyl)-[1,2,4]triazolo[4,3-a]pyridine-3-carboxamide [Example 113]”, the Ki (human RIP1 kinase domain (2-375), 2 hours incubation, Transcreener ADP assay, read-out: RIP1 Ki) came to 1700 nM.
